In ChEMBL document CHEMBL5528065, “Structure-Activity Relationship of a Pyrrole Based Series of PfPKG Inhibitors as Anti-Malarials” (J Med Chem, 2024):

Key:
[1] = Aqueous solubility of compound in PBS at pH 7.4 incubated for 90 mins by UV spectrophotometric analysis; assay type: physicochemical
[2] = Inhibition of recombinant Plasmodium falciparum PKG using FAM-PKA peptide as fluorescent substrate preincubated for 15 mins followed by substrate addition measured after 1 hr by fluorescence polarization based IMAP assay
[3] = Stability in human liver microsomes assessed as remaining compound in absence of NADPH incubated for 60 mins by LC-MS/MS analysis; assay type: ADME, Microsome; details: read-out: Stability
[4] = target: Voltage-gated inwardly rectifying potassium channel KCNH2 (Homo sapiens, UniProt Q12809); experiment: Inhibition of hERG expressed in HEK293 cells incubated for 30 mins by FluxOR dye based fluorescence analysis; assay type: toxicity, cell-based
Sequence of Voltage-gated inwardly rectifying potassium channel KCNH2 (Q12809 whole entry): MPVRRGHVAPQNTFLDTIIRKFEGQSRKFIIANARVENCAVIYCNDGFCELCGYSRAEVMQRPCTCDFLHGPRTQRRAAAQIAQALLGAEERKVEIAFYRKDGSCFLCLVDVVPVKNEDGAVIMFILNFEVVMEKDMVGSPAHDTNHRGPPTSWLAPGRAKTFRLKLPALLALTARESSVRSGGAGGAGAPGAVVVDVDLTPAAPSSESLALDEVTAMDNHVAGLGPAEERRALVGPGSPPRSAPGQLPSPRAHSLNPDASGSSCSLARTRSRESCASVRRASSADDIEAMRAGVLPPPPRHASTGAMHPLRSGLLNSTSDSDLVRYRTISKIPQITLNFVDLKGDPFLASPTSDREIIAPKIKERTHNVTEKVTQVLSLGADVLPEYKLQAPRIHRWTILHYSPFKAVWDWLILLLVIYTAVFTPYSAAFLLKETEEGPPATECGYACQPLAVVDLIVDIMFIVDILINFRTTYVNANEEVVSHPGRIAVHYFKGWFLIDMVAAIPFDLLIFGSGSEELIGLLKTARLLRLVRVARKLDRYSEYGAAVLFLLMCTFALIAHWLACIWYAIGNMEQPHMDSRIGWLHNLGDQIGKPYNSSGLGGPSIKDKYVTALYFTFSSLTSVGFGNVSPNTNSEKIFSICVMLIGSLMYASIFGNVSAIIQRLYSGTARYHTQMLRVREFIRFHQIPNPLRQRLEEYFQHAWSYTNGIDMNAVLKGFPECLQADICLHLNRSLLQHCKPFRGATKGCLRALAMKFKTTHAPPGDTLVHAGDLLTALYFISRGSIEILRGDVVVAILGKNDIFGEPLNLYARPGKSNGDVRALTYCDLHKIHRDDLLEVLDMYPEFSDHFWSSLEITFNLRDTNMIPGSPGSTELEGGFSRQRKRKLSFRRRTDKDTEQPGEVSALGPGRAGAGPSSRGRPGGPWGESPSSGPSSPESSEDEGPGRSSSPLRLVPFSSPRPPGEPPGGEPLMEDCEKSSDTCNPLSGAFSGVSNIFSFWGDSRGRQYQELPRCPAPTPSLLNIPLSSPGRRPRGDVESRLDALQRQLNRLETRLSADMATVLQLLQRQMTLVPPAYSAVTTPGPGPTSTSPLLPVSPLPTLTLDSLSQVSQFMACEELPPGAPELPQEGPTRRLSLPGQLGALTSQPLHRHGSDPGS

[5] = Efflux ratio of apparent permeability from basolateral to apical side over apical to basolateral side in human Caco-2 cells incubated for 120 mins by LC-MS/MS analysis; assay type: ADME, cell-based
[6] = Intrinsic clearance in CD-1 mouse liver microsomes in presence of NADPH incubated for 60 mins by LC-MS/MS analysis; assay type: ADME, Microsome; details: read-out: CLH
[7] = target: Cytochrome P450 2D6 (Homo sapiens, UniProt P10635); experiment: Inhibition of human CYP2D6 expressed in baculovirus infected insect cells using AMMC as substrate incubated for 40 mins in presence of NADPH by UPLC-MS analysis; assay type: ADME
Sequence of Cytochrome P450 2D6 (P10635 whole entry): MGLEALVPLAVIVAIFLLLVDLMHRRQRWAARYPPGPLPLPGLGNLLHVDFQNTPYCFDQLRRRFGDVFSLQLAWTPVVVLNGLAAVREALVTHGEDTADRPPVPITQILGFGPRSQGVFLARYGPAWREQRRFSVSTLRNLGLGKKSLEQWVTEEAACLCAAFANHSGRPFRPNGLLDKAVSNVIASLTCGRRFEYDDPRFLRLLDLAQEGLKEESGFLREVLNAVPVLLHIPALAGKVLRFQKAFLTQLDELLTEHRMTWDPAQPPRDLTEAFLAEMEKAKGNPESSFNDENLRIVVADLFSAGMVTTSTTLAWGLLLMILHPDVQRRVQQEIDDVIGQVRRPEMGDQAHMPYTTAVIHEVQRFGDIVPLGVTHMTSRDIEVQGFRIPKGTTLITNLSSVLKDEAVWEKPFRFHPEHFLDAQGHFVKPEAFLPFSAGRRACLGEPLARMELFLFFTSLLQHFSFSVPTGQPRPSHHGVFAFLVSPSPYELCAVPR

[8] = system: Plasmodium falciparum; experiment: Antimalarial activity against Plasmodium falciparum expressing PKG T618Q mutant infected in human erythrocytes assessed as reduction in parasitemia incubated for 72 hrs by SYBR green I and Mitotracker deep red dye based flow cytometric analysis; assay type: functional, organism-based
[9] = Apparent permeability in human Caco-2 cells incubated for 120 mins by LC-MS/MS analysis; assay type: ADME, cell-based
[10] = target: Cytochrome P450 2C9 (Homo sapiens, UniProt P11712); experiment: Inhibition of human CYP2C9 expressed in baculovirus infected insect cells using MFC as substrate incubated for 30 mins in presence of NADPH by UPLC-MS analysis; assay type: ADME
Sequence of Cytochrome P450 2C9 (P11712 whole entry): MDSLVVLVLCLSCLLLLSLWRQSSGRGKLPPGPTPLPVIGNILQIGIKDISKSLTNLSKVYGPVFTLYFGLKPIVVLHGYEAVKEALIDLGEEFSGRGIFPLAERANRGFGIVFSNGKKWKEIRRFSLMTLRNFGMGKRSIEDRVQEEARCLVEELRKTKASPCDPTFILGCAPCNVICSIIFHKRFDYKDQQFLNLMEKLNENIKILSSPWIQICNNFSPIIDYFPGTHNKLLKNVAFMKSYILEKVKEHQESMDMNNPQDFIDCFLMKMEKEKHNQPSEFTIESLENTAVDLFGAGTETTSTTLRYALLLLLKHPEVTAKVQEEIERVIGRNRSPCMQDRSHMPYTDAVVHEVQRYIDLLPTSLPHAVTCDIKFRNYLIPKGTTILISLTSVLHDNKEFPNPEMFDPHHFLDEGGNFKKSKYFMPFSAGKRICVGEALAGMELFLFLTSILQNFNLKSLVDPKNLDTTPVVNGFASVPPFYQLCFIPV

[11] = target: Cytochrome P450 3A4 (Homo sapiens, UniProt P08684); experiment: Inhibition of human CYP3A4 expressed in baculovirus infected insect cells using midazolam as substrate incubated for 30 mins in presence of NADPH by UPLC-MS analysis; assay type: ADME
Sequence of Cytochrome P450 3A4 (P08684 whole entry): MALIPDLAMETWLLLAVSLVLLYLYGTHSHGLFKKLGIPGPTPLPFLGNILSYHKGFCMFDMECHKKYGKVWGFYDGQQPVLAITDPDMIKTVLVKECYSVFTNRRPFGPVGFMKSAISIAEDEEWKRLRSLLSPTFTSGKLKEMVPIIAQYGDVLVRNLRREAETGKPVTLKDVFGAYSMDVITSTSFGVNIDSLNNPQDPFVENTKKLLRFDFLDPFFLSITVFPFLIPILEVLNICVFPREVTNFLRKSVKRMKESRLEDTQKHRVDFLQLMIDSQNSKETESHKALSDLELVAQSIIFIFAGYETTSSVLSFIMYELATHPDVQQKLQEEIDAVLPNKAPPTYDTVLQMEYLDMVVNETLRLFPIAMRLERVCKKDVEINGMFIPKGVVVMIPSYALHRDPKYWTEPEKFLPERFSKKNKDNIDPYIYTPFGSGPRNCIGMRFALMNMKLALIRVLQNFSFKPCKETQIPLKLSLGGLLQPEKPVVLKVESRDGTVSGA

[12] = system: Plasmodium falciparum; experiment: Antimalarial activity against drug-sensitive Plasmodium falciparum 3D7 infected in human erythrocytes assessed as reduction in parasitemia incubated for 72 hrs by SYBR green I and Mitotracker deep red dye based flow cytometric analysis; assay type: functional, organism-based
[13] = Half life in human liver microsomes in presence of NADPH incubated for 60 mins by LC-MS/MS analysis; assay type: ADME, Microsome
[14] = Protein binding in CD-1 mouse liver microsomes assessed as unbound fraction incubated for 17 hrs by LC-MS analysis; assay type: ADME, Microsome
[15] = Half life in CD-1 mouse liver microsomes in presence of NADPH incubated for 60 mins by LC-MS/MS analysis; assay type: ADME, Microsome
[16] = Stability in CD-1 mouse liver microsomes assessed as remaining compound in absence of NADPH incubated for 60 mins by LC-MS/MS analysis; assay type: ADME, Microsome; details: read-out: Stability
[17] = Protein binding in C57BL/6 mouse plasma assessed as unbound fraction incubated for 22 hrs by LC-MS/MS analysis; assay type: ADME, cell-free
[18] = Intrinsic clearance in human liver microsomes in presence of NADPH incubated for 60 mins by LC-MS/MS analysis; assay type: ADME, Microsome; details: read-out: CLH
[19] = species on record: Homo sapiens; experiment: Inhibition of human PKG using FAM-IP3R peptide as fluorescent substrate at 10 uM preincubated for 15 mins followed by substrate addition measured after 1 hr by fluorescence polarization based IMAP assay relative to control; details: time 75.0 min
[20] = system: Plasmodium berghei; experiment: Antimalarial activity against Plasmodium berghei sporozoites expressing Luciferase infected in human HepG2 cells assessed as reduction in parasite growth incubated for 48 hrs by ONE-Glo luciferase assay; assay type: functional, organism-based
[21] = Plasmodium falciparum, 3D7, 72 h
[22] = Plasmodium berghei, HepG2, 48 h

| Structure (SMILES) | solubility at 1.5 h [1] | IC50 [2] | pIC50 [2] | remaining at 1 h [3] | IC50 [4] | efflux ratio at 2 h [5] | microsomal CLint [6] | IC50 [7] | EC50 ([8]; Plasmodium falciparum, 72 h) | Papp at 2 h [9] | IC50 [10] | IC50 [11] | EC50 [12, 21] | half-life [13] | fraction unbound at 17 h [14] | half-life [15] | remaining at 1 h [16] | fraction unbound at 22 h [17] | microsomal CLint [18] | inhibition [19] | also measured |
| --- | --- | --- | --- | --- | --- | --- | --- | --- | --- | --- | --- | --- | --- | --- | --- | --- | --- | --- | --- | --- | --- |
| C[C@@H]1CN(C)CC[C@@H]1c1cc(-c2ccncc2)c(-c2ccc(F)cc2)[nH]1.Cl.Cl | 181 µM | 13 nM | 7.89 | 99% | > 10000 nM | 1 | < 23 µL/min/mg | > 10000 nM | 760 nM | 20.1 ×10⁻⁶ cm/s | > 10000 nM | > 10000 nM | 50 nM | 35.7 min | 0.502 | > 60 min | 103% | 0.155 | 38.8 µL/min/mg | -0.3% | EC50 [20, 22]: 70 nM |
| CC1CN(C)CC[C@H]1c1cc(-c2ccncc2)c(-c2ccc(F)cc2)[nH]1.Cl.Cl (single isomer, unassigned) | 190 µM | 14 nM | 7.85 | 101% | > 10000 nM | 1.27 | 49.2 µL/min/mg | 5670 nM | – | 17 ×10⁻⁶ cm/s | > 10000 nM | > 10000 nM | – | 57.5 min | 0.587 | 28.2 min | 104% | 0.115 | 24.1 µL/min/mg | 0.4% | EC50 [8]: 900 nM; EC50 [12]: 170 nM; EC50 [20]: 350 nM |
| C[C@@H]1CN(C)CCC1c1cc(-c2ccncc2)c(-c2ccc(F)cc2)[nH]1.Cl.Cl (single isomer, unassigned) | 176 µM | 9 nM | 8.05 | 98% | > 10000 nM | 1.59 | 44.5 µL/min/mg | 5740 nM | – | 22.1 ×10⁻⁶ cm/s | > 10000 nM | 7480 nM | – | > 60 min | 0.518 | 31.2 min | 103% | 0.119 | < 23 µL/min/mg | 45% | EC50 [8]: 1220 nM; EC50 [12]: 50 nM; EC50 [20]: 60 nM |
| C[C@H]1CN(C)CC[C@@H]1c1cc(-c2ccncc2)c(-c2ccc(F)cc2)[nH]1.Cl.Cl | 187 µM | 14 nM | 7.87 | 100% | > 10000 nM | 1.52 | < 23 µL/min/mg | 6150 nM | 780 nM | 22.6 ×10⁻⁶ cm/s | > 10000 nM | 4780 nM | 80 nM | > 60 min | 0.63 | > 60 min | 99% | 0.122 | < 23 µL/min/mg | 30% | EC50 [20, 22]: 170 nM |
